Like-named read-outs stand apart in the source and are kept apart here.
What was measured:
[1] = test system: cotton aphid (Aphis gossypii); experiment: Translaminar insecticidal activity test on cotton leaves, N-oxides versus free amines; assay type: in vivo; details: for mortality at 500 ppm: Aphis gossypii
Description: Certain N-Substituted azacyclic compounds where the N-substituent is O^− (the N-oxides) of the present invention were tested to determine their translaminar characteristics as evidenced by activity against cotton aphid (Aphis gossypii) in comparison with their corresponding free amine derivatives. These tests were conducted in the following manner: For each compound tested, one cotton plant with two mature leaves was selected. On the top of one of the leaves a sticky material used for trapping insects was applied using a stamp of about 2.5 centimeters in diameter. The process was repeated on the bottom of the second leaf of the cotton plant. A solution of 500 ppm of test compound (dissolved in 1:1 acetone and water containing a small amount of surfactant) was then applied to the entire side of each leaf opposite the side stamped with the sticky material using a saturated cotton swab. Upon completion of the application of the test compounds, the cotton plants were maintained in a growth chamber for about 18 hours. After this time the leaves of the test plant were infested with a known number of cotton aphids by placing an infested leaf cutting from the cotton aphid colony directly over the sticky material on each leaf. The leaf cutting on the bottom of a leaf of the test plant was secured to the leaf with a pin. The treated and infested cotton plants were then maintained in a chamber, during which time they were evaluated at daily intervals of from one to up to eight days. A test compound was termed active (A) if the top and bottom of the leaves of the test plant were mostly free of aphids (80% to 100%) when compared to untreated controls. […]

cotton aphid = experiment: Residual insecticidal activity test on sprayed cotton plants; assay type: in vivo, Aphis gossypii; details: 72 h exposure; for Percent Mortality 5 DAT (greenhouse): 5 day residual; for mortality at 224 g/ha / mortality at 560 g/ha / mortality at 1120 g/ha: Aphis gossypii
Description: Certain N-Substituted azacyclic compounds where the N-substituent is O^− (the N-oxides) of the present invention were also tested to determine their residual insecticidal activity. These tests were conducted in the following manner:
For each rate of application of test compound, a 15 mL aliquot of test solution was prepared. Sufficient test compound was dissolved in 1.5 mL of acetone to provide an application rate as high as 1200 grams/Ha. Each solution was then added to 13.5 mL of water containing 300 ppm of a surfactant. There were four replicates for each rate of application of test compound, and all tests included a known chemical standard as well as a standard of water and untreated checks.
A maximum of 14 appropriately sized cotton plants for each rate of application and replicate were arranged in a 28 pot plastic flat and sprayed with the 15 mL sample of test compound using an traveling boom sprayer equipped with a cone spray tip at a rate of 30 gallons/acre under a pressure of 40-44 psi. The untreated checks were sprayed first, followed by the test compounds and standards, all in order of lowest to highest rates of application. Once the spraying was complete, the test plants were allowed to air-dry on the conveyor on which they were sprayed.
In the test to determine residual activity (0 Day Residual) one set of dry plants was infested with leaf cuttings covered with about 25 cotton aphids taken from cotton plants in an aphid colony. The cotton plants were then maintained in a greenhouse or in an atmosphere of simulated direct sunlight for 72 hours after which time cotton aphid mortality was determined.
A second set of dry test plants treated with test compounds were maintained for three days (3 Day Residual), then infested with cotton aphid. The infested plants were maintained and evaluated for cotton aphid mortality after 72 hours as set forth above. Other residual activity periods are optionally evaluated also, for example a 5 day residual.
At the end of the 72 hour exposure period the numbers of live insects were counted a percent mortality of aphids was calculated based on the number of live insects present and the number that were infested onto the plants.

[2] = 24 h, read-out: Percent Mortality at Day After treatment (DAT), 1 DAT
[3] = 72 h, read-out: Percent Mortality at Day After treatment (DAT), 3 DAT
[4] = 96 h, read-out: Percent Mortality at Day After treatment (DAT), 4 DAT
[5] = 120 h, read-out: Percent Mortality at Day After treatment (DAT), 5 DAT
[6] = 144 h, read-out: Percent Mortality at Day After treatment (DAT), 6 DAT
[7] = 500 ppm applied to opposite leaf side, 2 DAT
[8] = 500 ppm applied to opposite leaf side, 3 DAT
[9] = 500 ppm applied to opposite leaf side
[10] = 500 ppm applied to opposite leaf side, 6 DAT
[11] = Table 4, 56 g/ha, 3 day residual, simulated sunlight environment
[12] = Table 4, 56 g/ha, greenhouse environment
[13] = Table 4, 56 g/ha, infested 0 days after treatment
[14] = Table 4, 112 g/ha, 3 day residual, simulated sunlight environment
[15] = Table 4, 112 g/ha, greenhouse environment
[16] = Table 4, 112 g/ha, infested 0 days after treatment
[17] = Table 4, 224 g/ha, 3 day residual, simulated sunlight environment
[18] = Table 4, 224 g/ha, greenhouse environment
[19] = Table 4, 224 g/ha, infested 0 days after treatment
[20] = 500 ppm applied to opposite leaf side, 1 DAT
[21] = 168 h, read-out: Percent Mortality at Day After treatment (DAT), 7 DAT

## CN1CCC=C(c2cnsn2)C1 [A, 3-[1-methyl(1,2,5,6-tetrahydropyrid-3-yl)]-1,2,5-thiadiazole]
[1]; 24 h, 500 ppm applied to opposite leaf side, 1 DAT, read-out: Percent Mortality at Day After treatment (DAT), 1 DAT
  mortality at 500 ppm: < 50%
[1]; 48 h, 500 ppm applied to opposite leaf side, 2 DAT, read-out: Percent Mortality at Day After treatment (DAT), 2 DAT
  mortality at 500 ppm: < 50%
[1]; 72 h, 500 ppm applied to opposite leaf side, 3 DAT, read-out: Percent Mortality at Day After treatment (DAT), 3 DAT
  mortality at 500 ppm: < 50%
[1]; 96 h, 500 ppm applied to opposite leaf side, 4 DAT, read-out: Percent Mortality at Day After treatment (DAT), 4 DAT
  mortality at 500 ppm: < 50%
[1]; 144 h, 500 ppm applied to opposite leaf side, 6 DAT, read-out: Percent Mortality at Day After treatment (DAT), 6 DAT
  mortality at 500 ppm: < 50%

## CCc1noc(C2CN3CCC2C3)n1 (stereo not shown) [C, 5-(4-azabicyclo[2.2.1]hept-2-yl)-3-ethyl-1,2,4-oxadiazole]
[1]; [2]
  mortality at 500 ppm: < 50%
[1]; [3]
  mortality at 500 ppm: < 50%
[1]; [4]
  mortality at 500 ppm: < 50%
[1]; [5]
  mortality at 500 ppm: < 50%
[1]; [6]
  mortality at 500 ppm: < 50%

## Cc1noc(C2C[N+]3([O-])CCC2C3)n1 (stereo not shown) [Compound 396, N-Oxide of 5-(4-azabicyclo[2.2.1]hept-2-yl)-3-methyl-1,2,4-oxadiazole]
[1]; [7]
  Percent Mortality at Day After treatment (DAT), 2 DAT: A (A is 80%-100% mortality when compared to the control)
[1]; [8]
  Percent Mortality at Day After treatment (DAT), 3 DAT: A (A is 80%-100% mortality when compared to the control)
[1]; [9]
  Percent Mortality at Day After treatment (DAT), 5 DAT: A (A is 80%-100% mortality when compared to the control)
[1]; [10]
  Percent Mortality at Day After treatment (DAT), 6 DAT: A (A is 80%-100% mortality when compared to the control)
[1]; 500 ppm, whole 7-day period
  mortality throughout the seven-day test period: 100%
Cotton aphid; Table 3, 224 g/ha, 3 day residual, greenhouse environment
  Percent Mortality 3 DAT (greenhouse): 98%
Cotton aphid; Table 3, 224 g/ha, 3 day residual, simulated sunlight environment
  Percent Mortality 3 DAT (simulated sunlight): 99%
Cotton aphid; Table 3, 224 g/ha, infested 0 days after treatment
  Percent Mortality 0 DAT: 100%
Cotton aphid; Table 3, 560 g/ha, 3 day residual, greenhouse environment
  Percent Mortality 3 DAT (greenhouse): 100%
Cotton aphid; Table 3, 560 g/ha, 3 day residual, simulated sunlight environment
  Percent Mortality 3 DAT (simulated sunlight): 100%
Cotton aphid; Table 3, 560 g/ha, infested 0 days after treatment
  Percent Mortality 0 DAT: 100%
Cotton aphid; Table 3, 1120 g/ha, 3 day residual, greenhouse environment
  Percent Mortality 3 DAT (greenhouse): 100%
Cotton aphid; Table 3, 1120 g/ha, 3 day residual, simulated sunlight environment
  Percent Mortality 3 DAT (simulated sunlight): 100%
Cotton aphid; Table 3, 1120 g/ha, infested 0 days after treatment
  Percent Mortality 0 DAT: 100%
Cotton aphid; [11]
  Percent Mortality 3 DAT (simulated sunlight): 58%
Cotton aphid; [12]
  Percent Mortality 5 DAT (greenhouse): 64%
Cotton aphid; [13]
  Percent Mortality 0 DAT: 100%
Cotton aphid; [14]
  Percent Mortality 3 DAT (simulated sunlight): 70%
Cotton aphid; [15]
  Percent Mortality 5 DAT (greenhouse): 86%
Cotton aphid; [16]
  Percent Mortality 0 DAT: 100%
Cotton aphid; [17]
  Percent Mortality 3 DAT (simulated sunlight): 98%
Cotton aphid; [18]
  Percent Mortality 5 DAT (greenhouse): 93%
Cotton aphid; [19]
  Percent Mortality 0 DAT: 100%

## CCc1noc(C2C[N+]3([O-])CCC2C3)n1 (stereo not shown) [Compound 397, N-Oxide of 5-(4-azabicyclo[2.2.1]hept-2-yl)-3-ethyl-1,2,4-oxadiazole]
[1]; [20]
  Percent Mortality at Day After treatment (DAT), 1 DAT: SA (SA is 50%-80% mortality when compared to the control)
[1]; [8]
  Percent Mortality at Day After treatment (DAT), 3 DAT: SA (SA is 50%-80% mortality when compared to the control)
[1]; 500 ppm applied to opposite leaf side, 4 DAT
  Percent Mortality at Day After treatment (DAT), 4 DAT: SA (SA is 50%-80% mortality when compared to the control)
[1]; [9]
  Percent Mortality at Day After treatment (DAT), 5 DAT: SA (SA is 50%-80% mortality when compared to the control)
[1]; [10]
  Percent Mortality at Day After treatment (DAT), 6 DAT: SA (SA is 50%-80% mortality when compared to the control)

## Cc1nnn(C2C[N+]3([O-])CCC2C3)n1 (stereo not shown) [Compound 402, N-Oxide of 2-(4-azabicyclo[2.2.1]heptyl-2-yl)-5-methyl-1,2,3,4-tetrazole]
[1]; [20]
  Percent Mortality at Day After treatment (DAT), 1 DAT: A (A is 80%-100% mortality when compared to the control)
[1]; [7]
  Percent Mortality at Day After treatment (DAT), 2 DAT: A (A is 80%-100% mortality when compared to the control)
[1]; [8]
  Percent Mortality at Day After treatment (DAT), 3 DAT: A (A is 80%-100% mortality when compared to the control)
[1]; [10]
  Percent Mortality at Day After treatment (DAT), 6 DAT: A (A is 80%-100% mortality when compared to the control)
[1]; 500 ppm applied to opposite leaf side, 7 DAT
  Percent Mortality at Day After treatment (DAT), 7 DAT: A (A is 80%-100% mortality when compared to the control)
Cotton aphid; [11]
  Percent Mortality 3 DAT (simulated sunlight): 50%
Cotton aphid; [12]
  Percent Mortality 5 DAT (greenhouse): 45%
Cotton aphid; [13]
  Percent Mortality 0 DAT: 50%
Cotton aphid; [14]
  Percent Mortality 3 DAT (simulated sunlight): 84%
Cotton aphid; [15]
  Percent Mortality 5 DAT (greenhouse): 70%
Cotton aphid; [16]
  Percent Mortality 0 DAT: 84%
Cotton aphid; [17]
  Percent Mortality 3 DAT (simulated sunlight): 92%
Cotton aphid; [18]
  Percent Mortality 5 DAT (greenhouse): 84%
Cotton aphid; [19]
  Percent Mortality 0 DAT: 92%

## Cc1nnn(C2C[N+]3([O-])CCC2CC3)n1 (stereo not shown) [Compound 407, N-Oxide of 5-methyl-2-quinuclidin-3-yl-1,2,3,4-tetraazole]
[1]; [2]
  mortality at 500 ppm: < 50%
[1]; [3]
  mortality at 500 ppm: 50 to 80%
[1]; [4]
  mortality at 500 ppm: 50 to 80%
[1]; [5]
  mortality at 500 ppm: 50 to 80%
[1]; [6]
  mortality at 500 ppm: 50 to 80%

## Cc1noc(C2CN3CCC2C3)n1 (stereo not shown) [Compound B, 5-(4-azabicyclo[2.2.1]hept-2-yl)-3-methyl-1,2,4-oxadiazole, reference compound]
[1]; [2]
  mortality at 500 ppm: < 50%
[1]; 48 h, read-out: Percent Mortality at Day After treatment (DAT), 2 DAT
  mortality at 500 ppm: < 50%
[1]; [3]
  mortality at 500 ppm: < 50%
[1]; [6]
  mortality at 500 ppm: < 50%
[1]; [21]
  mortality at 500 ppm: < 50%
[1]; 168 h, read-out: mortality throughout the seven-day test period
  mortality at 500 ppm: < 50%
Cotton aphid; Table 3, 224 g/ha, 3 day residual, greenhouse environment, read-out: Percent Mortality 3 DAT (greenhouse)
  mortality at 224 g/ha: 41%
Cotton aphid; Table 3, 224 g/ha, 3 day residual, simulated sunlight environment, read-out: Percent Mortality 3 DAT (simulated sunlight)
  mortality at 224 g/ha: 21%
Cotton aphid; Table 3, 224 g/ha, infested 0 days after treatment, read-out: Percent Mortality 0 DAT
  mortality at 224 g/ha: 100%
Cotton aphid; Table 3, 560 g/ha, 3 day residual, greenhouse environment, read-out: Percent Mortality 3 DAT (greenhouse)
  mortality at 560 g/ha: 84%
Cotton aphid; Table 3, 560 g/ha, 3 day residual, simulated sunlight environment, read-out: Percent Mortality 3 DAT (simulated sunlight)
  mortality at 560 g/ha: 49%
Cotton aphid; Table 3, 560 g/ha, infested 0 days after treatment, read-out: Percent Mortality 0 DAT
  mortality at 560 g/ha: 100%
Cotton aphid; Table 3, 1120 g/ha, 3 day residual, greenhouse environment, read-out: Percent Mortality 3 DAT (greenhouse)
  mortality at 1120 g/ha: 99%
Cotton aphid; Table 3, 1120 g/ha, 3 day residual, simulated sunlight environment, read-out: Percent Mortality 3 DAT (simulated sunlight)
  mortality at 1120 g/ha: 95%
Cotton aphid; Table 3, 1120 g/ha, infested 0 days after treatment, read-out: Percent Mortality 0 DAT
  mortality at 1120 g/ha: 100%

## Cc1nnn([C@H]2CN3CC[C@H]2C3)n1 [D, 2-(4-azabicyclo[2.2.1]heptyl-2-yl)-5-methyl-1,2,3,4-tetrazole]
[1]; [6]
  mortality at 500 ppm: 50 to 80%
[1]; [21]
  mortality at 500 ppm: 50 to 80%

## Cc1nnn(C2CN3CCC2CC3)n1 (stereo not shown) [E, 5-methyl-2-quinuclidin-3-yl-1,2,3,4-tetraazole]
[1]; [2]
  mortality at 500 ppm: < 50%
[1]; [3]
  mortality at 500 ppm: < 50%
[1]; [4]
  mortality at 500 ppm: < 50%
[1]; [5]
  mortality at 500 ppm: < 50%
[1]; [6]
  mortality at 500 ppm: < 50%

Reference: patent US20060241098A1, “Pesticidal n-substituted azacyclic derivatives” (priority 2003, published 2006)
